Measurements reported in ChEMBL document CHEMBL3352350, “Syntheses and structure-activity relationships in cytotoxicities of 13-substituted quaternary coptisine derivatives” (Eur J Med Chem, 2014).

Columns and labels:
A549 [1] = experiment: Cytotoxicity against human A549 cells assessed as growth inhibition rate after 96 hrs by MTT assay; format: functional, cell-based; conditions: A549, 96 h
A549 [2] = experiment: Cytotoxicity against human A549 cells assessed as growth inhibition rate at 0.1 to 100 umol/L after 96 hrs by MTT assay; format: functional
[3] = Cytotoxicity against human Bel7402 cells assessed as growth inhibition rate after 96 hrs by MTT assay; format: functional, cell-based; conditions: Bel-7402, 96 h
[4] = Cytotoxicity against human BGC823 cells assessed as growth inhibition rate after 96 hrs by MTT assay; format: functional, cell-based; conditions: BGC-823, 96 h
[5] = Cytotoxicity against human HCT8 cells assessed as growth inhibition rate after 96 hrs by MTT assay; format: functional, cell-based; conditions: HCT-8, 96 h
[6] = Cytotoxicity against human HCT8 cells assessed as growth inhibition rate at 0.1 to 100 umol/L after 96 hrs by MTT assay; format: functional, HCT-8
[7] = Cytotoxicity against human Bel7402 cells assessed as growth inhibition rate at 0.1 to 100 umol/L after 96 hrs by MTT assay; format: functional, Bel-7402
[8] = Cytotoxicity against human C33A cells assessed as growth inhibition rate after 96 hrs by MTT assay; format: functional, cell-based; conditions: C-33-A
[9] = Cytotoxicity against human C33A cells assessed as growth inhibition rate at 0.1 to 100 umol/L after 96 hrs by MTT assay; format: functional, C-33-A

Compound: Fc1cccc(Cc2c3[n+](cc4c5c(ccc24)OCO5)CCc2cc4c(cc2-3)OCO4)c1.[Cl-]
- IC50 (A549 [1]): > 10 µM
- growth inhibition (GI) (A549 [2]): 6.81%
- IC50 [3]: > 10 µM
- IC50 [4]: > 10 µM
- IC50 [5]: > 10 µM
- growth inhibition (GI) [6]: 4.59%
- growth inhibition (GI) [7]: 4.06%

Compound: Fc1ccccc1Cc1c2[n+](cc3c4c(ccc13)OCO4)CCc1cc3c(cc1-2)OCO3.[Cl-]
- IC50 (A549 [1]): > 10 µM
- growth inhibition (GI) (A549 [2]): 18.8%
- IC50 [3]: > 10 µM
- IC50 [4]: > 10 µM
- IC50 [5]: > 10 µM
- growth inhibition (GI) [6]: 26.26%
- growth inhibition (GI) [7]: 6.94%

Compound: Fc1ccc(Cc2c3[n+](cc4c5c(ccc24)OCO5)CCc2cc4c(cc2-3)OCO4)c(F)c1.[Cl-]
- IC50 (A549 [1]): > 10 µM
- growth inhibition (GI) (A549 [2]): 5.86%
- IC50 [3]: > 10 µM
- IC50 [4]: > 10 µM
- IC50 [5]: > 10 µM
- growth inhibition (GI) [6]: 1.19%
- growth inhibition (GI) [7]: 5.45%

Compound: FC(F)(F)c1cccc(Cc2c3[n+](cc4c5c(ccc24)OCO5)CCc2cc4c(cc2-3)OCO4)c1.[Cl-]
- IC50 (A549 [1]): > 10 µM
- growth inhibition (GI) (A549 [2]): 7.78%
- IC50 [3]: > 10 µM
- IC50 [4]: > 10 µM
- IC50 [5]: > 10 µM
- growth inhibition (GI) [6]: -1.37%
- growth inhibition (GI) [7]: 5.98%

Compound: FC(F)(F)c1cc(Cc2c3[n+](cc4c5c(ccc24)OCO5)CCc2cc4c(cc2-3)OCO4)cc(C(F)(F)F)c1.[Cl-]
- IC50 (A549 [1]): > 10 µM
- growth inhibition (GI) (A549 [2]): 3.45%
- IC50 [3]: > 10 µM
- IC50 [4]: > 10 µM
- IC50 [5]: > 10 µM
- growth inhibition (GI) [6]: -5.72%
- growth inhibition (GI) [7]: 3.61%

Compound: N#Cc1ccc(Cc2c3[n+](cc4c5c(ccc24)OCO5)CCc2cc4c(cc2-3)OCO4)cc1.[Cl-]
- IC50 (A549 [1]): > 10 µM
- growth inhibition (GI) (A549 [2]): 2%
- IC50 [3]: > 10 µM
- IC50 [4]: > 10 µM
- IC50 [5]: > 10 µM
- growth inhibition (GI) [6]: 3.69%
- growth inhibition (GI) [7]: 4.03%

Compound: O=[N+]([O-])c1ccc(Cc2c3[n+](cc4c5c(ccc24)OCO5)CCc2cc4c(cc2-3)OCO4)cc1.[Cl-]
- IC50 (A549 [1]): > 10 µM
- growth inhibition (GI) (A549 [2]): 2.27%
- IC50 [3]: > 10 µM
- IC50 [4]: > 10 µM
- IC50 [5]: > 10 µM
- growth inhibition (GI) [6]: -3.7%
- growth inhibition (GI) [7]: -0.12%

Compound: COc1ccc(Cc2c3[n+](cc4c5c(ccc24)OCO5)CCc2cc4c(cc2-3)OCO4)cc1.[Cl-]
- IC50 (A549 [1]): > 10 µM
- growth inhibition (GI) (A549 [2]): 11.53%
- IC50 [3]: > 10 µM
- IC50 [4]: > 10 µM
- IC50 [5]: > 10 µM
- growth inhibition (GI) [6]: 10.21%
- growth inhibition (GI) [7]: 5.99%

Compound: Cc1ccc(Cc2c3[n+](cc4c5c(ccc24)OCO5)CCc2cc4c(cc2-3)OCO4)cc1.[Cl-]
- IC50 (A549 [1]): > 10 µM
- growth inhibition (GI) (A549 [2]): 26.58%
- IC50 [3]: > 10 µM
- IC50 [4]: > 10 µM
- IC50 [5]: > 10 µM
- growth inhibition (GI) [6]: 15.16%
- growth inhibition (GI) [7]: 12.33%

Compound: [Cl-].c1ccc2cc(Cc3c4[n+](cc5c6c(ccc35)OCO6)CCc3cc5c(cc3-4)OCO5)ccc2c1
- IC50 (A549 [1]): > 10 µM
- growth inhibition (GI) (A549 [2]): 32.22%
- IC50 [3]: > 10 µM
- IC50 [4]: > 10 µM
- IC50 [5]: > 10 µM
- growth inhibition (GI) [6]: 8.33%
- growth inhibition (GI) [7]: 11.78%

Compound: CCOC(=O)c1c2[n+](cc3c4c(ccc13)OCO4)CCc1cc3c(cc1-2)OCO3.[Cl-]
- IC50 (A549 [1]): > 10 µM
- growth inhibition (GI) (A549 [2]): 9.7%
- IC50 [3]: > 10 µM
- IC50 [4]: > 10 µM
- IC50 [5]: > 10 µM
- growth inhibition (GI) [6]: 4%
- growth inhibition (GI) [7]: 4.05%

Compound: CCOC(=O)Cc1c2[n+](cc3c4c(ccc13)OCO4)CCc1cc3c(cc1-2)OCO3.[Cl-]
- IC50 (A549 [1]): > 10 µM
- growth inhibition (GI) (A549 [2]): 1.25%
- IC50 [3]: > 10 µM
- IC50 [4]: > 10 µM
- IC50 [5]: > 10 µM
- growth inhibition (GI) [6]: -9.3%
- growth inhibition (GI) [7]: 8.43%

Compound: [Cl-].c1c2c(cc3c1OCO3)-c1cc3ccc4c(c3c[n+]1CC2)OCO4 [COPTISINE CHLORIDE]
- IC50 [8]: > 14.1 µM
- IC50 (A549 [1]): > 14.1 µM
- growth inhibition (GI) (A549 [2]): 49.91%
- IC50 [3]: > 14.1 µM
- growth inhibition (GI) [9]: -10.71%
- IC50 [5]: 5.59 µM
- growth inhibition (GI) [6]: 62.06%
- growth inhibition (GI) [7]: 12.24%

Compound: O=c1[nH]cc(F)c(=O)[nH]1 [FLUOROURACIL]
- IC50 [8]: 4.61 µM
- IC50 (A549 [1]): 6.69 µM
- growth inhibition (GI) (A549 [2]): 72.25%
- IC50 [3]: 2.23 µM
- growth inhibition (GI) [9]: 56.06%
- IC50 [5]: 3.54 µM
- growth inhibition (GI) [6]: 80.36%
- growth inhibition (GI) [7]: 78.43%
